Data taken from the supplement of paper PMC10627819.

What was measured:
[1] = test system: B. subtilis 168; experiment: Bliss interaction score (quartile over a dose matrix) (fitness difference); higher = more antagonism (negative = synergy)
Outline: (§1)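 OD595 was read at entry into stationary phase and expressed relative to the robust mean of the no-drug wells on the same plate, capped at 1. The resulting ratio is the fitness value. The Bliss score, observed fitness minus product-based expected fitness with single-drug fitness inferred from combinations, is summarised by quartiles over technical, biological and donor/recipient replicates.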

[2] = test system: S. aureus Newman; experiment: as above
Outline: as §1

[3] = test system: S. pneumoniae D39V; experiment: as above
Outline: as §1

[4] = test system: S. aureus DSM 20231; experiment: as above
Outline: as §1

[5] = test system: S. aureus Newman; experiment: fitness (endpoint OD595 vs no drug) (fraction); higher = more growth
Outline: (§2)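 Bacterial growth was followed in 384-well plates seeded at OD595 0.01, with 30 µl per well, or 55 µl for S. pneumoniae, in TSB, LB Lennox or CY at 37 °C. OD595 was read every 30 min for 14 h, and each reading had the first reading subtracted as background. Fitness is the background-corrected optical density at entry into stationary phase divided by the robust mean of the no-drug control wells. This ratio is capped at 1.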

[6] = test system: S. pneumoniae D39V; experiment: as above
Outline: as §2

[7] = test system: S. aureus DSM 20231; experiment: as above
Outline: as §2
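Wherever Bliss interaction score (quartile over a dose matrix) is given: first quartile when negative (synergy) and third quartile when positive (antagonism).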

CO/N=C(\C(=O)N[C@@H]1C(=O)N2C(C(=O)[O-])=C(C[N+]3(C)CCCC3)CS[C@H]12)c1csc(N)n1 [Cefepime] + COc1ccc(C[C@H](N)C(=O)N[C@H]2[C@@H](O)[C@H](n3cnc4c(N(C)C)ncnc43)O[C@@H]2CO)cc1 [Puromycin]
Conditions | Bliss interaction score
[1] | 0.0941
[2] | -0.0741
[3] | 0.132
[4] | 0.0605

Conditions | fitness
[5], first compound 0.125 µg/mL, partner 0.39 µg/mL | 0.898
[5], first compound 0.125 µg/mL, partner 0.78 µg/mL | 0.94
[5], first compound 0.125 µg/mL, partner 1.56 µg/mL | 0.9
[5], first compound 0.25 µg/mL, partner 0.39 µg/mL | 0.831
[5], first compound 0.25 µg/mL, partner 0.78 µg/mL | 0.865
[5], first compound 0.25 µg/mL, partner 1.56 µg/mL | 0.865
[5], first compound 0.5 µg/mL, partner 0.39 µg/mL | 0.728
[5], first compound 0.5 µg/mL, partner 0.78 µg/mL | 0.764
[5], first compound 0.5 µg/mL, partner 1.56 µg/mL | 0.775
[6], first compound 0.007 µg/mL, partner 1 µg/mL | ≥ 1
[6], first compound 0.007 µg/mL, partner 2 µg/mL | 0.993
[6], first compound 0.007 µg/mL, partner 4 µg/mL | 0.873
[6], first compound 0.014 µg/mL, partner 1 µg/mL | ≥ 1
[6], first compound 0.014 µg/mL, partner 2 µg/mL | ≥ 1
[6], first compound 0.014 µg/mL, partner 4 µg/mL | 0.876
[6], first compound 0.028 µg/mL, partner 1 µg/mL | 0.961
[6], first compound 0.028 µg/mL, partner 2 µg/mL | 0.944
[6], first compound 0.028 µg/mL, partner 4 µg/mL | 0.771
[7], first compound 0.125 µg/mL, partner 0.39 µg/mL | 0.867
[7], first compound 0.125 µg/mL, partner 0.78 µg/mL | ≥ 1
[7], first compound 0.125 µg/mL, partner 1.56 µg/mL | 0.965
[7], first compound 0.25 µg/mL, partner 0.39 µg/mL | 0.932
[7], first compound 0.25 µg/mL, partner 0.78 µg/mL | 0.951
[7], first compound 0.25 µg/mL, partner 1.56 µg/mL | 0.924
[7], first compound 0.5 µg/mL, partner 0.78 µg/mL | 0.952
[7], first compound 0.5 µg/mL, partner 1.56 µg/mL | 0.907

fitness, one replicate
Conditions | first compound 0.0078 µg/mL | first compound 0.0155 µg/mL | first compound 0.031 µg/mL | first compound 0.125 µg/mL | first compound 0.25 µg/mL | first compound 0.5 µg/mL
[6], partner 1 µg/mL | 0.979 | 0.896 | 0.42 | – | – | –
[6], partner 2 µg/mL | 0.927 | 0.881 | 0.449 | – | – | –
[6], partner 4 µg/mL | 0.868 | 0.845 | 0.314 | – | – | –
[7], partner 3.12 µg/mL | – | – | – | 0.956 | 0.911 | 0.871
[7], partner 6.24 µg/mL | – | – | – | 0.781 | 0.857 | 0.716

CO/N=C(\C(=O)N[C@@H]1C(=O)N2C(C(=O)[O-])=C(C[N+]3(C)CCCC3)CS[C@H]12)c1csc(N)n1 [Cefepime] + C[C@@H]1O[C@@H]1P(=O)(O)O [Fosfomycin]
Conditions | Bliss interaction score
[1] | -0.0571
[2] | 0.16
[3] | -0.0837
[4] | -0.0913

Conditions | fitness
[5], first compound 0.125 µg/mL, partner 0.781 µg/mL | 0.691
[5], first compound 0.125 µg/mL, partner 1.562 µg/mL | 0.599
[5], first compound 0.125 µg/mL, partner 3.124 µg/mL | 0.301
[5], first compound 0.25 µg/mL, partner 0.781 µg/mL | 0.653
[5], first compound 0.25 µg/mL, partner 1.562 µg/mL | 0.587
[5], first compound 0.25 µg/mL, partner 3.124 µg/mL | 0.305
[5], first compound 0.5 µg/mL, partner 0.781 µg/mL | 0.659
[5], first compound 0.5 µg/mL, partner 1.562 µg/mL | 0.568
[5], first compound 0.5 µg/mL, partner 3.124 µg/mL | 0.276
[6], first compound 0.007 µg/mL, partner 1.25 µg/mL | 0.966
[6], first compound 0.007 µg/mL, partner 2.5 µg/mL | 0.911
[6], first compound 0.007 µg/mL, partner 5 µg/mL | 0.677
[6], first compound 0.0078 µg/mL, partner 1.25 µg/mL | 0.987
[6], first compound 0.0078 µg/mL, partner 2.5 µg/mL | 0.957
[6], first compound 0.0078 µg/mL, partner 5 µg/mL | 0.755
[6], first compound 0.014 µg/mL, partner 1.25 µg/mL | 0.984
[6], first compound 0.014 µg/mL, partner 2.5 µg/mL | 0.889
[6], first compound 0.014 µg/mL, partner 5 µg/mL | 0.62
[6], first compound 0.0155 µg/mL, partner 1.25 µg/mL | 0.962
[6], first compound 0.0155 µg/mL, partner 2.5 µg/mL | 0.932
[6], first compound 0.0155 µg/mL, partner 5 µg/mL | 0.633
[6], first compound 0.028 µg/mL, partner 1.25 µg/mL | 0.844
[6], first compound 0.028 µg/mL, partner 2.5 µg/mL | 0.707
[6], first compound 0.028 µg/mL, partner 5 µg/mL | 0.273
[6], first compound 0.031 µg/mL, partner 1.25 µg/mL | 0.789
[7], first compound 0.125 µg/mL, partner 0.781 µg/mL | 0.649
[7], first compound 0.125 µg/mL, partner 1.562 µg/mL | 0.503
[7], first compound 0.125 µg/mL, partner 3.124 µg/mL | 0.456
[7], first compound 0.25 µg/mL, partner 0.781 µg/mL | 0.633
[7], first compound 0.25 µg/mL, partner 1.562 µg/mL | 0.512
[7], first compound 0.25 µg/mL, partner 3.124 µg/mL | 0.488
[7], first compound 0.5 µg/mL, partner 0.781 µg/mL | 0.67
[7], first compound 0.5 µg/mL, partner 1.562 µg/mL | 0.559
[7], first compound 0.5 µg/mL, partner 3.124 µg/mL | 0.539

CC1(C)S[C@@H]2[C@H](NC(=O)[C@H](N)c3ccc(O)cc3)C(=O)N2[C@H]1C(=O)O [Amoxicillin] + CN[C@H](CC(C)C)C(=O)N[C@H]1C(=O)N[C@@H](CC(N)=O)C(=O)N[C@H]2C(=O)N[C@H]3C(=O)N[C@H](C(=O)N[C@H](C(=O)O)c4cc(O)cc(O)c4-c4cc3ccc4O)[C@H](O)c3ccc(c(Cl)c3)Oc3cc2cc(c3O[C@@H]2O[C@H](CO)[C@@H](O)[C@H](O)[C@H]2O[C@H]2C[C@](C)(N)[C@H](O)[C@H](C)O2)Oc2ccc(cc2Cl)[C@H]1O [Vancomycin]
Conditions | Bliss interaction score
[1] | -0.0442
[2] | 0.0681
[3] | 0.101
[4] | 0.074

Conditions | fitness
[5], first compound 0.0625 µg/mL, partner 0.1875 µg/mL | 0.916
[5], first compound 0.0625 µg/mL, partner 0.375 µg/mL | 0.914
[5], first compound 0.0625 µg/mL, partner 0.75 µg/mL | 0.879
[5], first compound 0.125 µg/mL, partner 0.1875 µg/mL | 0.887
[5], first compound 0.125 µg/mL, partner 0.375 µg/mL | 0.875
[5], first compound 0.125 µg/mL, partner 0.75 µg/mL | 0.877
[5], first compound 0.25 µg/mL, partner 0.1875 µg/mL | 0.89
[5], first compound 0.25 µg/mL, partner 0.375 µg/mL | 0.866
[5], first compound 0.25 µg/mL, partner 0.75 µg/mL | 0.811
[6], first compound 0.0008 µg/mL, partner 0.03125 µg/mL | 0.988
[6], first compound 0.0008 µg/mL, partner 0.0625 µg/mL | 0.871
[6], first compound 0.0008 µg/mL, partner 0.125 µg/mL | 0.894
[6], first compound 0.0015 µg/mL, partner 0.03125 µg/mL | 0.977
[6], first compound 0.0015 µg/mL, partner 0.0625 µg/mL | 0.852
[6], first compound 0.0015 µg/mL, partner 0.125 µg/mL | 0.913
[6], first compound 0.0015 µg/mL, partner 0.25 µg/mL | 0.869
[6], first compound 0.0015 µg/mL, partner 0.5 µg/mL | 0.299
[6], first compound 0.003 µg/mL, partner 0.03125 µg/mL | 0.861
[6], first compound 0.003 µg/mL, partner 0.0625 µg/mL | 0.762
[6], first compound 0.003 µg/mL, partner 0.125 µg/mL | 0.783
[6], first compound 0.003 µg/mL, partner 0.25 µg/mL | 0.742
[6], first compound 0.003 µg/mL, partner 0.5 µg/mL | 0.289
[7], first compound 0.0625 µg/mL, partner 0.1875 µg/mL | 0.605
[7], first compound 0.0625 µg/mL, partner 0.375 µg/mL | 0.667
[7], first compound 0.125 µg/mL, partner 0.1875 µg/mL | 0.397
[7], first compound 0.125 µg/mL, partner 0.375 µg/mL | 0.452
[7], first compound 0.25 µg/mL, partner 0.1875 µg/mL | 0.125
[7], first compound 0.25 µg/mL, partner 0.375 µg/mL | 0.15
[7], first compound 0.25 µg/mL, partner 0.75 µg/mL | 0.176
[7], first compound 0.5 µg/mL, partner 0.1875 µg/mL | 0.0104
[7], first compound 0.5 µg/mL, partner 0.375 µg/mL | 0.0135
[7], first compound 0.5 µg/mL, partner 0.75 µg/mL | 0.0165

fitness, [6], one replicate
Conditions | partner 0.125 µg/mL | partner 0.25 µg/mL | partner 0.5 µg/mL
first compound 0.0008 µg/mL | – | 0.928 | 0.33
first compound 0.006 µg/mL | 0.234 | 0.13 | 0.0321

Cn1nnc(-c2ccc(-c3ccc(N4C[C@H](CO)OC4=O)cc3F)cn2)n1 [Tedizolid] + CC1=C\[C@@H](O)CC(=O)Cc2nc(co2)C(=O)N2CCC=C2C(=O)O[C@H](C(C)C)[C@H](C)/C=C/C(=O)NC\C=C\1 [Virginiamycin M1]
Conditions | Bliss interaction score
[1] | -0.0674
[2] | 0.0611
[3] | 0.103
[4] | -0.078

fitness
Conditions | first compound 0.03125 µg/mL | first compound 0.0625 µg/mL | first compound 0.125 µg/mL | first compound 0.25 µg/mL | first compound 0.5 µg/mL
[5], partner 0.0625 µg/mL | – | 0.965 | 0.814 | – | –
[5], partner 0.125 µg/mL | – | 0.97 | 0.823 | – | –
[5], partner 0.25 µg/mL | – | 0.997 | 0.843 | – | –
[6], partner 0.5 µg/mL | 0.972 | 0.962 | 0.807 | – | –
[6], partner 1 µg/mL | 0.978 | 0.973 | 0.807 | – | –
[6], partner 2 µg/mL | 0.955 | 0.948 | 0.824 | 0.785 | 0.607
[7], partner 0.0625 µg/mL | – | 0.839 | 0.579 | 0.194 | –
[7], partner 0.125 µg/mL | – | 0.889 | 0.542 | 0.212 | –
[7], partner 0.25 µg/mL | – | 0.888 | – | 0.102 | –

fitness, one replicate
Conditions | first compound 0.0625 µg/mL | first compound 0.125 µg/mL | first compound 0.25 µg/mL | first compound 0.5 µg/mL
[5], partner 0.5 µg/mL | 0.885 | 0.91 | 0.57 | –
[5], partner 1 µg/mL | 0.956 | 0.956 | 0.565 | –
[5], partner 2 µg/mL | 0.851 | 0.785 | 0.456 | –
[6], partner 0.15 µg/mL | – | 0.905 | 0.835 | 0.534
[6], partner 0.3 µg/mL | – | 0.892 | 0.818 | 0.505
[6], partner 0.5 µg/mL | – | – | 0.838 | 0.659
[6], partner 1 µg/mL | – | – | 0.771 | 0.523
[7], partner 0.5 µg/mL | 0.676 | 0.31 | 0.0481 | –
[7], partner 1 µg/mL | 0.681 | 0.327 | 0.0496 | –
